Reference: patent US10301272B2, “Carboxamide or sulfonamide substituted thiazoles and related derivatives as modulators for the orphan nuclear receptor ROR[γ]” (Phenex Pharmaceuticals AG, priority 2012, dated 2019)
Read-outs that look alike come from different tables or passages of the source.

Assays:
[1] = target: RORγ ligand binding domain (LBD) (Homo sapiens (Human), UniProt P51449); test: TR-FRET Activity Assay (ligand sensing assay, LANCE); conditions: for pIC50 (FRET): TR-FRET, interaction of RORγ-LBD with coactivator peptide
[2] = target: RORγ (Homo sapiens, UniProt P51449); test: RORγ Gal4 Reporter Gene Assay; type: cell-based
Method in brief: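 Cells at 5×10^5/well were transfected with RORγ fragments fused to the GAL4 DNA-binding domain (CMV promoter), a 5×GAL4-site firefly luciferase reporter and CMV-Renilla luciferase for normalization. About 4 h later serum-free MEM and compound were added (vehicle ≤0.1%). Cultures at 37 °C, 5% CO2; at least triplicates.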

RORγ, sequence (P51449 whole entry, looked up, the tested form may be a part): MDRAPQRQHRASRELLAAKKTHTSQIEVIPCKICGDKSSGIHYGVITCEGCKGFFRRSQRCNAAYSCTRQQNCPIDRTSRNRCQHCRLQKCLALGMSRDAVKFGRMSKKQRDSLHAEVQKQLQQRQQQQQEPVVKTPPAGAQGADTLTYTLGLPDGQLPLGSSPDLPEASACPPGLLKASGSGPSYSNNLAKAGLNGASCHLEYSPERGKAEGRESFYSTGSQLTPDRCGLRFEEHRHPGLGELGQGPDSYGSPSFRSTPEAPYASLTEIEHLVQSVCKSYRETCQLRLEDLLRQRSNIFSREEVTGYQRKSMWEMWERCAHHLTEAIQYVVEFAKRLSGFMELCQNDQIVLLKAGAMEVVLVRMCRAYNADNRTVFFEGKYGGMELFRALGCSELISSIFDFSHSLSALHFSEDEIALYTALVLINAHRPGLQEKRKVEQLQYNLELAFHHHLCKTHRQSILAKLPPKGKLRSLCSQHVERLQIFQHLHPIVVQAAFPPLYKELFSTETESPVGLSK
RORγ ligand binding domain (LBD), sequence (P51449 269-508): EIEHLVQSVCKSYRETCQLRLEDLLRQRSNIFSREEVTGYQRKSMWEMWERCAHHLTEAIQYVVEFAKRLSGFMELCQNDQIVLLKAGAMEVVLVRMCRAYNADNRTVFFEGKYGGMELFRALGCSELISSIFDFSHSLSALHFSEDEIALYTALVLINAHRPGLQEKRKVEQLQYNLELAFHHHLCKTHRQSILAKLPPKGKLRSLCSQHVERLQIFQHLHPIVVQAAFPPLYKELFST

Row | IC50 [1] | IC50 ([2]; firefly (FF) luciferase, 293T cells, read-out: pIC50 (FF) (converted)) | IC50 ([2]; renilla normalised (RENnorm) luciferase, 293T cells, read-out: pIC50 (REN) (converted)) | Structure (SMILES) | pIC50 (FRET) [1] | pIC50 (FF) [2] | pIC50 (REN) [2] | pIC50 (FF) ([2]; firefly (FF) luciferase, 293T cells) | pIC50 (REN) ([2]; renilla normalised (RENnorm) luciferase, 293T cells)
1 |  |  |  | CCS(=O)(=O)c1ccc(CC(=O)Nc2nc(CC3CCCCC3)c(-c3ccc(S(=O)(=O)NC(C)(C)C)c(C(F)(F)F)c3)s2)cc1 [Example 200/1] | 7.1/7.4/7.8 | 7.1/7.4/7.8 | 7.1/7.4/7.8 |  | 
2 |  |  |  | CC(C)(C)NS(=O)(=O)c1ccc(-c2sc(C(=O)N[C@H]3C[C@H](C(=O)O)C3)nc2CC2CCCCC2)cc1C(C)(C)C [7/2] | 6.2/7.5/7.6 | 6.2/7.5/7.6 | 6.2/7.5/7.6 |  | 
3 |  |  |  | CC(C)(C)NS(=O)(=O)c1ccc(-c2sc(C(=O)N[C@H]3C[C@H](C(=O)O)C3)nc2CC2CCCCC2)c(F)c1OC(F)(F)F [19/10] | 6.7/8.4/8.5 | 6.7/8.4/8.5 | 6.7/8.4/8.5 |  | 
4 |  |  |  | CC(C)(C)NS(=O)(=O)c1ccc(-c2sc(S(N)(=O)=O)nc2CC2CCCCC2)cc1C(C)(C)C [Example 13/1] | 6.3/6.6/6.6 | 6.3/6.6/6.6 | 6.3/6.6/6.6 |  | 
5 |  |  |  | CC(C)(C)NC(=O)c1ccc(-c2sc(C(=O)NC3CCS(=O)(=O)CC3)nc2CC2CCCCC2)c2ccccc12 [7/25] | 6.2/6.6/6.5 | 6.2/6.6/6.5 | 6.2/6.6/6.5 |  | 
6 |  |  |  | COC(c1nc(C(=O)N[C@H]2C[C@H](C(=O)O)C2)sc1-c1ccc(S(=O)(=O)NC(C)(C)C)c(C(C)(C)C)c1)C1CCCCC1 (stereo partly drawn) [Example 19, trans-3-(5-(3-(tert-Butyl)-4-(N-(tert-butyl)sulfamoyl)phenyl)-4-(cyclohexyl(methoxy)methyl)thiazole-2-carboxamido)cyclobutanecarboxylic acid] | 5.4/6.4/6.6 | 5.4/6.4/6.6 | 5.4/6.4/6.6 |  | 
7 |  |  |  | CC(C)(C)NS(=O)(=O)c1ccc(-c2sc(C(=O)NCC(C)(C)C(=O)O)nc2CC2CCCCC2)cc1C(F)(F)F [9/3] | 6.4/7.2/7.4 | 6.4/7.2/7.4 | 6.4/7.2/7.4 |  | 
8 |  |  |  | CCS(=O)(=O)c1ccc(CC(=O)Nc2nc(-c3ccccc3)c(Cc3ccccc3)s2)cc1 [Example 211, N-(5-Benzyl-4-phenylthiazol-2-yl)-2-(4-(ethylsulfonyl)phenyl)acetamide] | 5.8 |  |  | 6.3 | 6.4
9 |  |  |  | CC(C)(C)NS(=O)(=O)c1ccc(-c2sc(C(=O)NC3CCS(=O)(=O)CC3)nc2-c2ccccc2)c2ccccc12 [Example 300/1] | 7.2/7.8/7.9 | 7.2/7.8/7.9 | 7.2/7.8/7.9 |  | 
10 |  |  |  | CC(C)(C)NS(=O)(=O)c1ccc(-c2sc(C(=O)N[C@H]3C[C@H](C(=O)O)C3)nc2CC2CCCCC2)c2c(F)cccc12 [19/9] | 6.3/7.0/7.1 | 6.3/7.0/7.1 | 6.3/7.0/7.1 |  | 
11 |  |  |  | CC(C)(C)c1cc(-c2sc(C(=O)NCC3(C(N)=O)CCOCC3)nc2CC2CCCCC2)cc(C2(C)CC2)c1 [6/2] | 7.0/7.5/7.7 | 7.0/7.5/7.7 | 7.0/7.5/7.7 |  | 
12 |  |  |  | CC(C)(C)NS(=O)(=O)c1ccc(-c2sc(C(=O)NCCC(C)(C)C(=O)O)nc2CC2CCCCC2)cc1C(F)(F)F [Example 9/1] | 6.5/7.4/7.4 | 6.5/7.4/7.4 | 6.5/7.4/7.4 |  | 
13 |  |  |  | Cc1c(S(=O)(=O)NC(C)(C)C)ccc(-c2sc(C(=O)N[C@H]3C[C@H](C(=O)O)C3)nc2CC2CCCCC2)c1C(F)(F)F [7/14] | 5.8/8.5/8.7 | 5.8/8.5/8.7 | 5.8/8.5/8.7 |  | 
14 | 200 nM | 126 nM | 158 nM | CCCc1nc(C(=O)N[C@H]2C[C@H](C(=O)O)C2)sc1-c1ccc(S(=O)(=O)NC(C)(C)C)c(Cl)c1Cl [300/6] |  |  |  |  | 
15 |  |  |  | CCCc1nc(C(=O)NC2CCS(=O)(=O)CC2)sc1-c1ccc(S(=O)(=O)NC(C)(C)C)c(Cl)c1Cl [300/5] | 7.0/7.4/7.5 | 7.0/7.4/7.5 | 7.0/7.4/7.5 |  | 
16 |  |  |  | CC(C)(C)NS(=O)(=O)c1ccc(-c2nc(C(=O)NC3CCS(=O)(=O)CC3)oc2CC2CCCCC2)c2ccccc12 [Example 103, 4-(4-(N-(tert-Butyl)sulfamoyl)naphthalen-1-yl)-5-(cyclohexylmethyl)-N-(1,1-dioxidotetrahydro-2H-thiopyran-4-yl)oxazole-2-carboxamide] | 6.3/7.2/7.3 | 6.3/7.2/7.3 | 6.3/7.2/7.3 |  | 
17 |  |  |  | CC(C)(C)NS(=O)(=O)c1ccc(-c2sc(C(=O)N[C@H]3C[C@H](C(=O)O)C3)nc2CC2CCCCC2)c2c1CCC2 [9/11] | 6.6/8.5/8.5 | 6.6/8.5/8.5 | 6.6/8.5/8.5 |  | 
18 |  |  |  | CC(C)(C)c1cc(-c2nc(C(=O)NC3COC3)ncc2CC2CCCCC2)cc(C(C)(C)C)c1 [Example 207, 5-(Cyclohexylmethyl)-4-(3,5-di-tert-butylphenyl)-N-(oxetan-3-yl)pyrimidine-2-carboxamide] | 5.4/6.4/6.5 | 5.4/6.4/6.5 | 5.4/6.4/6.5 |  | 

Row | IC50 [1] | IC50 ([2]; firefly (FF) luciferase, 293T cells, read-out: pIC50 (FF) (converted)) | IC50 ([2]; renilla normalised (RENnorm) luciferase, 293T cells, read-out: pIC50 (REN) (converted)) | Structure (SMILES) | pIC50 (FRET) [1] | pIC50 (FF) [2] | pIC50 (REN) [2] | pIC50 (FF) ([2]; firefly (FF) luciferase, 293T cells) | pIC50 (REN) ([2]; renilla normalised (RENnorm) luciferase, 293T cells)
19 |  |  |  | CC(C)(O)CNC(=O)c1nc(CC2CCCCC2)c(-c2ccc(S(=O)(=O)NC(C)(C)C)c(C(F)F)c2F)s1 [6/18] | 7.0/8.5/8.7 | 7.0/8.5/8.7 | 7.0/8.5/8.7 |  | 
20 |  |  |  | CC(C)(C)NS(=O)(=O)c1ccc(-c2sc(C(=O)NC3CS(=O)(=O)C3)nc2CC2CCCCC2)c(Cl)c1Cl [15/4] | 7.3/8.7/9.0 | 7.3/8.7/9.0 | 7.3/8.7/9.0 |  | 
21 |  |  |  | CC(C)(C)NS(=O)(=O)c1ccc(-c2sc(C(=O)NCCC(C)(C)C(=O)O)nc2CC2CCCCC2)cc1C(C)(C)C [Example 7/1] | 6.1/6.8/6.9 | 6.1/6.8/6.9 | 6.1/6.8/6.9 |  | 
22 |  |  |  | CC(C)(O)CNC(=O)c1nc(CC2CCCCC2)c(-c2ccc(S(=O)(=O)NC(C)(C)C)c(Cl)c2OC(F)F)s1 [21/4] | 6.9/8.2/8.4 | 6.9/8.2/8.4 | 6.9/8.2/8.4 |  | 
23 |  |  |  | O=C(c1nc(CC2CCCCC2)c(-c2ccc(S(=O)(=O)NC3CS(=O)(=O)C3)c3ccccc23)s1)N1CC2(CCS(=O)(=O)CC2)C1 [14/3] | 6.6/6.4/6.4 | 6.6/6.4/6.4 | 6.6/6.4/6.4 |  | 
24 |  |  |  | CC(C)(C)NS(=O)(=O)c1ccc(-c2oc(C(=O)NC3CCS(=O)(=O)CC3)nc2CC2CCCCC2)c2ccccc12 [100/6] | 6.4/8.5/8.4 | 6.4/8.5/8.4 | 6.4/8.5/8.4 |  | 
25 |  |  |  | CC1(c2cc(Cl)cc(-c3sc(C(=O)N[C@H]4C[C@H](C(=O)O)C4)nc3CC3CCCCC3)c2)CC1 [9/9] | 5.4/6.9/7.0 | 5.4/6.9/7.0 | 5.4/6.9/7.0 |  | 
26 |  |  |  | CC(C)(O)CC(=O)Nc1nc(CC2CCCCC2)c(-c2ccc(S(=O)(=O)NC(C)(C)C)c(C(F)(F)F)c2)s1 [Example 200, N-(5-(4-(N-(tert-Butyl)sulfamoyl)-3-(trifluoromethyl)phenyl)-4-(cyclohexylmethyl)thiazol-2-yl)-3-hydroxy-3-methylbutanamide] | 6.6/7.5/7.8 | 6.6/7.5/7.8 | 6.6/7.5/7.8 |  | 
27 |  |  |  | CC(C)(C)NS(=O)(=O)c1ccc(-c2sc(C(=O)N3CC(C(C)(C)C(=O)O)C3)nc2CC2CCCCC2)c(Cl)c1Cl [6/37] | 6.1 | 6.1/6.9/6.9 | 6.1/6.9/6.9 |  | 
28 |  |  |  | CC(C)(C)NS(=O)(=O)c1ccc(-c2sc(C(=O)NN3CCS(=O)(=O)CC3)nc2CC2CCCCC2)c(Cl)c1Cl [6/21] | 6.8/8.7/8.7 | 6.8/8.7/8.7 | 6.8/8.7/8.7 |  | 
29 |  |  |  | CC(C)(O)c1cc(-c2sc(C(=O)N[C@H]3C[C@@H](C(=O)O)C3)nc2CC2CCCCC2)cc(C2(C)CC2)c1 [9/10] | 6.3/7.2/7.2 | 6.3/7.2/7.2 | 6.3/7.2/7.2 |  | 
30 |  |  |  | CC(C)(C)NC(=O)c1cc(-c2sc(C(=O)N[C@H]3C[C@H](C(=O)O)C3)nc2CC2CCCCC2)cc(C(C)(C)C)c1 [9/7] | 6.2/7.4/7.5 | 6.2/7.4/7.5 | 6.2/7.4/7.5 |  | 
31 |  |  |  | CC(C)(C)NS(=O)(=O)c1ccc(-c2sc(S(N)(=O)=O)nc2CC2CCCCC2)cc1C(F)(F)F [13/2] | 6.5/6.7/6.8 | 6.5/6.7/6.8 | 6.5/6.7/6.8 |  | 
32 |  |  |  | CC(O)c1c(S(=O)(=O)NC(C)(C)C)ccc(-c2sc(C(=O)N3CC4(CCS(=O)(=O)CC4)C3)nc2CC2CCCCC2)c1Cl (stereo not drawn) [21/10] | 5.9/6.7/6.7 | 5.9/6.7/6.7 | 5.9/6.7/6.7 |  | 
33 |  |  |  | CC(C)(C)NS(=O)(=O)c1ccc(-c2sc(C(=O)NCC3(O)CCOCC3)nc2CC2CCCCC2)cc1C(C)(C)O [6/27] | 6.7/7.7/7.7 | 6.7/7.7/7.7 | 6.7/7.7/7.7 |  | 
34 |  |  |  | CC(C)(C)c1cc(-c2nc(C(N)=O)sc2CC2CCCCC2)cc(C(C)(C)C)c1 [Example 1, 5-(Cyclohexylmethyl)-4-(3,5-di-tert-butylphenyl)thiazole-2-carboxamide] | 6.5/5.8/5.8 | 6.5/5.8/5.8 | 6.5/5.8/5.8 |  | 
35 |  |  |  | CC(C)(C)c1cc(-c2sc(S(N)(=O)=O)nc2CC2CCCCC2)cc(C2(C)CC2)c1 [Example 13, 5-(3-(tert-Butyl)-5-(1-methylcyclopropyl)phenyl)-4-(cyclohexylmethyl)thiazole-2-sulfonamide] | 7.0/6.5/6.7 | 7.0/6.5/6.7 | 7.0/6.5/6.7 |  | 
36 |  |  |  | CSc1cnc(CNC(=O)c2nc(CC3CCCCC3)c(-c3ccc(S(=O)(=O)NC(C)(C)C)c(Cl)c3Cl)s2)s1 [6/40] | 7.0/8.2/8.3 | 7.0/8.2/8.3 | 7.0/8.2/8.3 |  | 
